Assay results taken from patent US20220226337A1 (Gilead Sciences, Inc., priority 2018, published 2022).

Target: T1, α4β7 integrin interaction with MadCAM-1 (RPMI8866 cells) (Homo sapiens, UniProt P13612+P26010)
T1 construct: α4β7 integrin expressing cells; endogenous in cells; host or cells: RPMI8866 cells
T1 sequence (P13612 34-1032): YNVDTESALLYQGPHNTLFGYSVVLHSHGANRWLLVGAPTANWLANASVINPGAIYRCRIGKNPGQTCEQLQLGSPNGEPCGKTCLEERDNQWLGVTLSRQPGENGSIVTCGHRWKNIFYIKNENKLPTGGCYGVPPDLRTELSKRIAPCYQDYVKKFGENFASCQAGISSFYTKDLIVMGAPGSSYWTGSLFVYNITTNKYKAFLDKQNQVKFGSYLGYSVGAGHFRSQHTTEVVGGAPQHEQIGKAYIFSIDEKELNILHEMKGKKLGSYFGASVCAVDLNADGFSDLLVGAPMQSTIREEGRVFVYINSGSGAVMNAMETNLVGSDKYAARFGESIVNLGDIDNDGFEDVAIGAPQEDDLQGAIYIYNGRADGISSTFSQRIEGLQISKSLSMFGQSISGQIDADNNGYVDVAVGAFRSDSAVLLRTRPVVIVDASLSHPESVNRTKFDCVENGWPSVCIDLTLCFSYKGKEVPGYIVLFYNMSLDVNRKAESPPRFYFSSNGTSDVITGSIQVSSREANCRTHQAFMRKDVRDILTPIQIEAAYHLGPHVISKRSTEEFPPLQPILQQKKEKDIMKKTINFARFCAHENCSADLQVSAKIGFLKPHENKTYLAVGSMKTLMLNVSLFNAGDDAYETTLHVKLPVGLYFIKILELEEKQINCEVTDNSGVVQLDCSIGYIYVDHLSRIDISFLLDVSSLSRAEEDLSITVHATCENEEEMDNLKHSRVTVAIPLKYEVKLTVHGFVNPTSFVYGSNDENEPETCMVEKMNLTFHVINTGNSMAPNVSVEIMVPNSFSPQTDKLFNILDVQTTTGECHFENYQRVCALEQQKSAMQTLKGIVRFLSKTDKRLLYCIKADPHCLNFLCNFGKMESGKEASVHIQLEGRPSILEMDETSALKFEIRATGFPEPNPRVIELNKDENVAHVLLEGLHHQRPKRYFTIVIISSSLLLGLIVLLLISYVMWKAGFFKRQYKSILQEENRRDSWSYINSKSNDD
T1 sequence (P26010 20-798): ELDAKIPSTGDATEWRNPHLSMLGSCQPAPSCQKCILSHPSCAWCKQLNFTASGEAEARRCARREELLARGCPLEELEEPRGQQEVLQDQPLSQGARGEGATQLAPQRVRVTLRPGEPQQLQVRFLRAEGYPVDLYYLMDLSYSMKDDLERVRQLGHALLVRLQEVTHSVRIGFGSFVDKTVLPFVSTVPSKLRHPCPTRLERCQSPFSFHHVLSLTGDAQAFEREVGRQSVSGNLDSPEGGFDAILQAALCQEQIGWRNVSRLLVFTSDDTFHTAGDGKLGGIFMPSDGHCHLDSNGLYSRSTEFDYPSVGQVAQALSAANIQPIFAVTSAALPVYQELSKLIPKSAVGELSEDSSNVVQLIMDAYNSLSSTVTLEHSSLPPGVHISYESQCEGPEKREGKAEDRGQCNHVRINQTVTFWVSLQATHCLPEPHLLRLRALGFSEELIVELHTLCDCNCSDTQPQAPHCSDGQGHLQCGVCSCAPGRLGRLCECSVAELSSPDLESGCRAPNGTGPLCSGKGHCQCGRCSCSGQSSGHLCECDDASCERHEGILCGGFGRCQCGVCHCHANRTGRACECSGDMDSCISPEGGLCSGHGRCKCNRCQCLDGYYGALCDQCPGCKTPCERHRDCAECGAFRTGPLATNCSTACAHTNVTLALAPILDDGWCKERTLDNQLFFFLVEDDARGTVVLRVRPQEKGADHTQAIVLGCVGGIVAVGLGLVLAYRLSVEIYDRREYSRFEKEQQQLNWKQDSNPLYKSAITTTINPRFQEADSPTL
Experiment: α4β7 Integrin Cell Capture Assay
Assay type: cell-based
Settings: capture of α4β7 integrin expressing RPMI8866 cells on recombinant MadCAM-1 extracellular domain-coated plate; 0.5 mM MnCl2
How it was run: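 RPMI8866 cells (0.5×10^6 cells/mL in DMEM + 0.5% FBS + 0.5 mM MnCl2) preincubated with compound 1 h at 37 °C, then allowed to adhere 30 min at 37 °C to plates coated with MAdCAM-1 extracellular domain (1.0 μg/mL). Bound cells fixed with 2% glutaraldehyde, Hoechst-stained, imaged and counted; EC50 from cell count versus concentration.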

Work on “(S)-2-(2,6-difluoro-4-(((R)-1,1,1-trifluorobutan-2-yl)amino)benzamido)-3-(7-(1,4-dimethyl-2-oxo-5-(trifluoromethyl)-1,2-dihydropyridin-3-yl)-1,3-dihydroisobenzofuran-4-yl)propanoic acid [Example 25]” yielded an EC50 of 2.85 nM.
